Consider two molecules from patent publication US20180071303A1, “SYK INHIBITORS” (Gilead Sciences, Inc., priority 2016, published 2018).

Molecules are shown by their SMILES.

The conditions of data set [1]: Nijjar J. S. et al., Rheumatology 2013; cited from earlier work.
Data set [2] deals with previously untreated AML. The data set is described as follows: phase 1b/2 study (NCT02343939) of entospletinib monotherapy followed by combination with daunorubicin and cytarabine. The note with it: for complete remission (CR) rate: with induction chemotherapy.
Excerpt: Patients with residual disease two weeks after chemotherapy received a second induction cycle identical to the first.

`COc1cc(Nc2ncc(F)c(Nc3ccc4c(n3)N(COP(=O)(O)O)C(=O)C(C)(C)O4)n2)cc(OC)c1OC` [Fostamatinib]: the adverse side effects entry in data set [1] was “hypertension, neutropenia and transaminitis”.

Consider `c1cn2cc(-c3ccc4cn[nH]c4c3)nc(Nc3ccc(N4CCOCC4)cc3)c2n1` [entospletinib], for which the “patients requiring a second induction” value in data set [2] (200 mg BID, 3 patients) was “two”; in data set [2] (400 mg BID, 6 patients) it was “none”. Further, the “complete remission (CR) rate” value in data set [2] (200 mg BID, 3 patients) was 100%; in data set [2] (400 mg BID, 6 patients) it was 100%. Moreover, the “dose limiting toxicity (DLT)” value was “no DLT was observed” in data set [2] (200 mg BID, three patients) and “none of whom experienced DLT” in data set [2] (400 mg BID, 3 additional patients (DL 1 expanded)). Besides, the “adverse event possibly related to entospletinib” value in data set [2] (400 mg BID, one of three patients, with documented fungal pneumonia, did not meet DLT criteria) is given as “grade 3 pneumonitis”. In data set [2] (another patient with 11q23-rearranged AML, monotherapy window), the “platelet response during the window period” value was “significant platelet response”. Besides, the “toxicities after combination with intensive chemotherapy” value in data set [2] (combination with daunorubicin and cytarabine) was “common and typical”. In addition, the “tolerability of combination with intensive chemotherapy” value in data set [2] (doses up to 400 mg BID) is reported as “well tolerated”. Besides, in data set [2] (monotherapy window period (up to 14 days), AML patients), the “tolerability of single-agent entospletinib” value is given as “well tolerated”. For the same molecule, in data set [2] (overall conclusion), the “clinical activity in AML” value is “significant clinical activity”. The “most common non hematologic adverse events” value in data set [2] (overall, inclusive of intensive chemotherapy periods) is “febrile neutropenia, nausea, and diarrhea”. Moreover, the “response after entospletinib monotherapy window” value in data set [2] (person with 11q23-rearranged AML, 14 day monotherapy, prior to chemotherapy) is “achieved morphologic and cytogenetic CR”.
